Source: patent publication US12065443B2, “Compounds and pharmaceutical compositions thereof for the treatment of diseases” (priority 2017, dated 2024)
Where two headings read alike, the source gives them in different places. One block for each compound: values may come before it.

Columns and labels:
[1] = test system: LPS triggered IL-10 secretion in monocyte-derived macrophages (MdM); assay: MdM assay: LPS-triggered IL-10 (ELISA); format: cell-based, human; conditions: maximal fold change vs LPS only, median across assays
In short: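 Readout is IL-10FCmax, the median across at least two runs of the highest fold change over LPS-only, from ELISA absorbance at 450 nm of 2 h supernatants. Macrophages came from day-10 cultures of human CD14+ monocytes, were given compound for 1 h at 37° C in 0.2% DMSO, then 200 ng/mL LPS.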

[2] = test system: LPS-induced TNFα secretion in monocyte-derived macrophages (MdM); assay: MdM assay: LPS-triggered TNFα (ELISA); format: cell-based, human; conditions: Homo sapiens, Macrophage, LPS-triggered TNFα inhibition
In short: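 TNFα ELISA read on supernatants harvested 20 h after LPS (final 200 ng/mL) stimulation. Cells were day-10 macrophages derived from human blood CD14+ monocytes, exposed to 3-fold compound dilutions for 1 h at 37 °C beforehand, with DMSO held at 0.2%.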

SIK3 = biological target: T1, SIK3 (Homo sapiens, UniProt Q9Y2K2); assay: biochemical
T1 construct: purchased SignalChem S12-11G-100
T1 sequence (Q9Y2K2 whole entry): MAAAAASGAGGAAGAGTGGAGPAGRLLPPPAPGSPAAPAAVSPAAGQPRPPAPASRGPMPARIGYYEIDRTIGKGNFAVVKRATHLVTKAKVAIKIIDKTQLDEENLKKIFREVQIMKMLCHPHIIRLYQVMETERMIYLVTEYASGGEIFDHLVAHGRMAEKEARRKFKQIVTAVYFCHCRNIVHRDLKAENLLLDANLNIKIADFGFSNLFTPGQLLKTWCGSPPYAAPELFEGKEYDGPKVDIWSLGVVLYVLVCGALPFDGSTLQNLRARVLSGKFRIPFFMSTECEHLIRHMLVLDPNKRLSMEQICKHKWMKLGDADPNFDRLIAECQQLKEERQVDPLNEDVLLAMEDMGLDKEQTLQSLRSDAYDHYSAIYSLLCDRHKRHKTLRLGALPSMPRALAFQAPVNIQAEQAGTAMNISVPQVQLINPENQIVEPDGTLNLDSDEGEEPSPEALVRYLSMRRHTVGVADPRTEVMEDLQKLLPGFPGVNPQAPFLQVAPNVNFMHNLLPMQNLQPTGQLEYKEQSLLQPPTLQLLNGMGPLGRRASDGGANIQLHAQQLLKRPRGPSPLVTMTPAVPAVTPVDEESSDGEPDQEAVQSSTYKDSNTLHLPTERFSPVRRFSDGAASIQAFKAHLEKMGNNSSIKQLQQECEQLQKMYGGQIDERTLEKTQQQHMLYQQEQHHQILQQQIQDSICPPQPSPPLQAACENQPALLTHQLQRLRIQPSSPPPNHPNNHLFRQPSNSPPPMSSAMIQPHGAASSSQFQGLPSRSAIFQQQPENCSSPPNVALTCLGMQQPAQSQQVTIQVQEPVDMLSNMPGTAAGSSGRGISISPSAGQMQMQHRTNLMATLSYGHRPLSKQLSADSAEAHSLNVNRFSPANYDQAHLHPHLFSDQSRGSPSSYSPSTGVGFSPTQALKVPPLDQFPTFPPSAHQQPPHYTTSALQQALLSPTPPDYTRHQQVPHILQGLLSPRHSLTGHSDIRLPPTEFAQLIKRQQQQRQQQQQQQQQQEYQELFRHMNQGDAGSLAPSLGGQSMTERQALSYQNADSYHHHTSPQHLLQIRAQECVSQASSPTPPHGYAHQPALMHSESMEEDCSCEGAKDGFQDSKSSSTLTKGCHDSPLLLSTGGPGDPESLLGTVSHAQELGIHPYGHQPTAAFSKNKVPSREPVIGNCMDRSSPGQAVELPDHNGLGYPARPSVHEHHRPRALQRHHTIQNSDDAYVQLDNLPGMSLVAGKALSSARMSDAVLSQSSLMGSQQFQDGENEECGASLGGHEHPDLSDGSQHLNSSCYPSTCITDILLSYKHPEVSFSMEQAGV
In short: (§1)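 AMARA peptide phosphorylation by SIK1–3 is quantified through ^33P uptake from a labeled/unlabeled ATP blend. Staurosporine at 10 μM final defines full inhibition, 1% DMSO the uninhibited signal. Quench uses phosphoric acid; counting follows filter capture.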

SIK1 = biological target: T2, SIK1 (Homo sapiens, UniProt P57059); assay: biochemical
T2 construct: purchased Carna Biosciences 02-131
T2 sequence (P57059 whole entry): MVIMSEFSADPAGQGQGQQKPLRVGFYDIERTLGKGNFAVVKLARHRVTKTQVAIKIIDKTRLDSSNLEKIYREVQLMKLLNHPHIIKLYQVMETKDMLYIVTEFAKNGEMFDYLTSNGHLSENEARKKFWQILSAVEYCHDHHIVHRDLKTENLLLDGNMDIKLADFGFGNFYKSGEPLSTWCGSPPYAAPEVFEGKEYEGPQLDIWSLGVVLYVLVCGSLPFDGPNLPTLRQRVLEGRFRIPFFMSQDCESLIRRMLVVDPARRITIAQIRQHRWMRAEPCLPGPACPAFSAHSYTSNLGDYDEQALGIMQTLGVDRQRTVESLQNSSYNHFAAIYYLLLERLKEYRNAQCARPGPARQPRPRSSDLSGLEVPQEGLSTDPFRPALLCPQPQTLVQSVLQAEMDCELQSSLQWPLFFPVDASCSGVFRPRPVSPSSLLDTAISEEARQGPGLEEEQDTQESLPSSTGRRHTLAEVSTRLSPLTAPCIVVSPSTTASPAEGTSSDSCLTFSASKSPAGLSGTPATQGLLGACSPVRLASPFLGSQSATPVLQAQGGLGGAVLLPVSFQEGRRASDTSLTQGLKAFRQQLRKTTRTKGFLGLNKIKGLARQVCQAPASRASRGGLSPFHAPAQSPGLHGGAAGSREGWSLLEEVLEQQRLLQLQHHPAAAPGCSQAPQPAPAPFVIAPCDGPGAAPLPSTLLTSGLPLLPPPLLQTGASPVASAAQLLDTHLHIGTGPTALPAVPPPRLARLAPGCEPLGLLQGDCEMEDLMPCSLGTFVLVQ
In short: as §1

SIK2 = biological target: T3, SIK2 (Homo sapiens, UniProt Q9H0K1); assay: biochemical; conditions: 33P radioactive SIK kinase assay, AMARA peptide, 10 μM ATP
T3 construct: purchased ThermoFisher Scientific PV4792
T3 sequence (Q9H0K1 whole entry): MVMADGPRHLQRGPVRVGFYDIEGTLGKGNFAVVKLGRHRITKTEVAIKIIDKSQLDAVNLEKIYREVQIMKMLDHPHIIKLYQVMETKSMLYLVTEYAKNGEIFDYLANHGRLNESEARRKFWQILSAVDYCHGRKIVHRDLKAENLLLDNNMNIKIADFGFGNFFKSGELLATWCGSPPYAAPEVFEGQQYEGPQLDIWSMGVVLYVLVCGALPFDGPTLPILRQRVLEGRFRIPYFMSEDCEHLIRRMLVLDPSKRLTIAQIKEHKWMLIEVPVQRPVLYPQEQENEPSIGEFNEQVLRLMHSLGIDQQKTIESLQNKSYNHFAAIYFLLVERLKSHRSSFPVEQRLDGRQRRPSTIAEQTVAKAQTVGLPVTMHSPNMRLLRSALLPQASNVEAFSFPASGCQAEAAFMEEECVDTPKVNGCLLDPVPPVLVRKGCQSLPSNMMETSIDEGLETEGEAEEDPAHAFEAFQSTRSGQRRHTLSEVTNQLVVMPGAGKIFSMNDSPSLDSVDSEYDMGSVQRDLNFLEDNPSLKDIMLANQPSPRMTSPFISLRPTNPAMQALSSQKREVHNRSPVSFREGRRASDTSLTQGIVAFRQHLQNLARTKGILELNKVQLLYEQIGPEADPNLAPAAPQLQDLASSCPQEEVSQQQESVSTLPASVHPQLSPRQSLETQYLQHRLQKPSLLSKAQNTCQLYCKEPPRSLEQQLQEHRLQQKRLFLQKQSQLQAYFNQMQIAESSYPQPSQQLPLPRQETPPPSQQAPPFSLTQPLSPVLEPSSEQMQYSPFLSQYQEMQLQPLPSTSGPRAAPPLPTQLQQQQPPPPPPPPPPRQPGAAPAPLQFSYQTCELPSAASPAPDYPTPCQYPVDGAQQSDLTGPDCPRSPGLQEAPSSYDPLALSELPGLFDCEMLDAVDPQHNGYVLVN
In short: as §1

[3] = test system: LPS driven TNFα secretion in Peripheral Blood Mononuclear Cells (PBMC); assay: cells; format: cell-based; conditions: Homo sapiens, LPS 1 ng/mL, supernatant after 18-20 h, ELISA
Procedure: This assay measures the inhibition of LPS driven TNFα secretion by a test compound in Peripheral Blood Mononuclear Cells (PBMC), which in turn correlates with SIK inhibition.
PBMCs are isolated from human blood samples (buffy coats). The buffy coat is aseptically transferred into a 50 mL Falcon™ tube, and diluted 1/2 in Phosphate Buffered Saline (PBS). […] The tubes are centrifuged for 35 min at 400× g in temperature controlled centrifuge, without brake, at 25° C. PBMCs are aspirated from the white interface layer between sample and Lymphoprep. PBMCs are washed five times in PBS. […] The PBMCs are finally seeded at 400,000 PBMC/160 μL/96-well.
A compound dilution plate is made in 100% DMSO by 3-fold dilution of 10 mM stock solution of test compound. An intermediate dilution plate (10× final concentration) is made by diluting the compound dilution plate 50-fold in RPMI medium.
20 μL of the 10× final concentration compound is added to the cells and incubated for 1 hour at 37° C. before addition of trigger. No trigger conditions/trigger conditions are spiked with equal final DMSO concentrations of 0.2% DMSO. 20 μL of 10×LPS (final concentration 1 ng/mL) solution are added to all wells except for the ‘no trigger wells’ where 20 μL medium is added. Supernatant is collected after 18-20 h for IL-10 and TNFα determination using ELISA.
The plate is then washed once with PBST (PBS+0.05% Tween20) and once with PBS followed by the addition of 100 μL of blocking buffer (1% Bovine Serum Albumin (BSA)-5% Sucrose) and plates are sealed and incubated for at least 4 h at RT. After washing the plate once with PBST and once with PBS, 40 μL of standard or sample are added (TNFα standard curve is prepared using a 1/2 serial dilution starting from 16000 pg/mL; dilutions are made in dilution buffer (PBS+1% BSA)). Plates are washed twice with PBST, and once with PBS, after which 35 μL of the detection antibody is added (final concentration 0.25 μg/mL diluted in dilution buffer) and plates are incubated for at least 2 h at RT. Plates are washed twice with PBST, and once with PBS, where after 35 μL of Strep-HRP conjugate (0.5 μg/mL final concentration diluted in dilution buffer) is added. Plates are incubated in the dark, at RT for at least 45 min but no longer than 1 hour. Plates are washed twice with PBST, and once with PBS. Thereafter, 50 μL of luminol substrate is added to each well (prepared according to manufacturer's instructions), and incubated for 5 min at RT protected from light.
To measure the inhibition of LPS induced TNFα, percentage inhibition (PIN) values are calculated for all concentrations tested, compared to controls.
PIN values are plotted in concentration-response and EC50 values are derived using GraphPad Prism Software, applying 4-parameter nonlinear regression (sigmoidal) curve fitting.

[4] = 33P radioactive SIK kinase assay, AMARA peptide, 10 μM ATP, read-out: SIK1 IC50

SMILES: COc1cc(-n2cnc3cc(-c4cnn(C5CNC5)c4)ccc32)cc(OC)c1C(=O)NCC(F)(F)F [Cpd 94, 4-[5-[1-(azetidin-3-yl)pyrazol-4-yl]benzimidazol-1-yl]-2,6-dimethoxy-N-(2,2,2-trifluoroethyl)benzamide]
EC50 [2]: 100 to 1000 nM
IC50 (SIK3): 0.01 to 10 nM
IC50 (SIK1; [4]): 0.01 to 10 nM
IC50 (SIK2): 0.01 to 10 nM
EC50 [3]: 0.1 to 100 nM

SMILES: COc1cc(-n2cnc3cc(-c4cnn(C5CN(CC#N)C5)c4)ccc32)cc(OC)c1C(=O)NCC(F)(F)F [Cpd 100, 4-[5-[1-[1-(cyanomethyl)azetidin-3-yl]pyrazol-4-yl]benzimidazol-1-yl]-2,6-dimethoxy-N-(2,2,2-trifluoroethyl)benzamide]
EC50 [2]: 100 to 1000 nM
IC50 (SIK3): 0.01 to 10 nM
IC50 (SIK1; [4]): 10 to 100 nM
IC50 (SIK2): 0.01 to 10 nM
EC50 [3]: 0.1 to 100 nM

SMILES: COc1cc(-n2cnc3cc(-c4cnn(CC(C)C)c4)ccc32)cc(OC)c1C(=O)NCC(F)(F)F [Cpd 110, 4-[5-(1-isobutylpyrazol-4-yl)benzimidazol-1-yl]-2,6-dimethoxy-N-(2,2,2-trifluoroethyl)benzamide]
EC50 [2]: 100 to 1000 nM
IC50 (SIK3): 0.01 to 10 nM
IC50 (SIK1; [4]): 10 to 100 nM
IC50 (SIK2): 0.01 to 10 nM
EC50 [3]: 0.1 to 100 nM

SMILES: CCNC(=O)c1c(OC)cc(-n2cnc3cc(-c4cnn(CCN5CCOCC5)c4)ccc32)cc1OC(F)F [compound 57, 2-(difluoromethoxy)-N-ethyl-6-methoxy-4-[5-[1-(2-morpholinoethyl)pyrazol-4-yl]benzimidazol-1-yl]benzamide]
IL-10 FCmax median [1]: ++ (>1.5-4.5)
EC50 [2]: 100 to 1000 nM
IC50 (SIK3): 0.01 to 10 nM
IC50 (SIK1; [4]): 10 to 100 nM
IC50 (SIK2): 0.01 to 10 nM
EC50 [3]: 0.1 to 100 nM

SMILES: COc1cc(-n2cnc3cc(-c4cnn(C)c4)ccc32)cc(OC)c1C(=O)NCC(F)F [compound 78, N-(2,2-difluoroethyl)-2,6-dimethoxy-4-[5-(1-methylpyrazol-4-yl)benzimidazol-1-yl]benzamide]
IL-10 FCmax median [1]: ++ (>1.5-4.5)
EC50 [2]: 100 to 1000 nM
IC50 (SIK3): 0.01 to 10 nM
IC50 (SIK1; [4]): 10 to 100 nM
IC50 (SIK2): 0.01 to 10 nM
EC50 [3]: 0.1 to 100 nM

SMILES: COc1cc(-n2cnc3cc(-c4cc(C)n[nH]4)ccc32)cc(OC)c1C(=O)NCC(F)(F)F [compound 101, 2,6-dimethoxy-4-[5-(3-methyl-1H-pyrazol-5-yl)benzimidazol-1-yl]-N-(2,2,2-trifluoroethyl)benzamide]
EC50 [2]: 0.1 to 100 nM
IC50 (SIK3): 0.01 to 10 nM
IC50 (SIK1; [4]): 10 to 100 nM
IC50 (SIK2): 0.01 to 10 nM
EC50 [3]: 0.1 to 100 nM

SMILES: COc1cc(-c2cnc3cc(-c4cnn(C)c4)ccn23)cc(OC)c1C(=O)NC1CC1 [compound 102, N-cyclopropyl-2,6-dimethoxy-4-[7-(1-methylpyrazol-4-yl)imidazo[1,2-a]pyridin-3-yl]benzamide]
IL-10 FCmax median [1]: ++ (>1.5-4.5)
EC50 [2]: 0.1 to 100 nM
IC50 (SIK3): 0.01 to 10 nM
IC50 (SIK1; [4]): 0.01 to 10 nM
IC50 (SIK2): 0.01 to 10 nM
EC50 [3]: 0.1 to 100 nM

SMILES: CCCn1cc(-c2ccc3c(c2)ncn3-c2cc(OC)c(C(=O)NCC(F)(F)F)c(OC)c2)cn1 [compound 103, 2,6-dimethoxy-4-[5-(1-propylpyrazol-4-yl)benzimidazol-1-yl]-N-(2,2,2-trifluoroethyl)benzamide]
EC50 [2]: 0.1 to 100 nM
IC50 (SIK3): 0.01 to 10 nM
IC50 (SIK1; [4]): 0.01 to 10 nM
IC50 (SIK2): 0.01 to 10 nM
EC50 [3]: 0.1 to 100 nM

SMILES: COc1cc(-c2cnc3cc(-c4cnn(C)c4)cnn23)cc(OC)c1C(=O)NCC(F)(F)F [compound 107]
EC50 [2]: 100 to 1000 nM
IC50 (SIK3): 0.01 to 10 nM
IC50 (SIK1; [4]): 10 to 100 nM
IC50 (SIK2): 0.01 to 10 nM
EC50 [3]: 0.1 to 100 nM

SMILES: COc1cc(-n2cnc3cc(-c4cc(C)no4)ccc32)cc(OC)c1C(=O)NCC(F)(F)F [compound 109, 2.6-dimethoxy-4-[5-(3-methylisoxazol-5-yl)benzimidazol-1-yl]-N-(2,2,2-trifluoroethyl)benzamide]
EC50 [2]: 100 to 1000 nM
IC50 (SIK3): 10 to 100 nM
IC50 (SIK1; [4]): 10 to 100 nM
IC50 (SIK2): 10 to 100 nM
EC50 [3]: 100 to 1000 nM

SMILES: COc1cc(-c2cnc3cc(-c4cnn(C)c4)cnn23)cc(OC)c1C(=O)NC1CC1 [compound 112, N-cyclopropyl-2,6-dimethoxy-4-[7-(1-methylpyrazol-4-yl)imidazo[1,2-b]pvridazin-3-yl]benzamide]
IL-10 FCmax median [1]: + (≤1.5)
EC50 [2]: 0.1 to 100 nM
IC50 (SIK3): 0.01 to 10 nM
IC50 (SIK1; [4]): 0.01 to 10 nM
IC50 (SIK2): 0.01 to 10 nM
EC50 [3]: 0.1 to 100 nM

SMILES: CCNC(=O)c1c(OC)cc(-c2cnn3cc(-c4cnn(C)c4)ccc23)cc1OC(F)F [compound 117, 2-(difluoromethoxy)-N-ethyl-6-methoxy-4-[6-(1-methylpyrazol-4-yl)pyrazolo[1,5-a]pyridin-3-yl]benzamide]
EC50 [2]: 0.1 to 100 nM
IC50 (SIK3): 0.01 to 10 nM
IC50 (SIK1; [4]): 0.01 to 10 nM
IC50 (SIK2): 0.01 to 10 nM
EC50 [3]: 0.1 to 100 nM

SMILES: COc1cc(-n2cnc3cc(-c4cnn(C)c4)ccc32)cc(OC)c1C(=O)N1CC(C)(C)C1 [compound 179, [2,6-dimcthoxy-4-[5-(1-methylpyrazol-4-yl)benzimidazol-1-yl]phenyl]-(3,3-dimethylazetidin-1-yl)methanone]
EC50 [2]: 100 to 1000 nM
IC50 (SIK3): 10 to 100 nM
IC50 (SIK1; [4]): 10 to 100 nM
IC50 (SIK2): 10 to 100 nM
EC50 [3]: 100 to 1000 nM

Second part, led by results:

EC50 [2]: 0.1 to 100 nM
IC50 (SIK3): 0.01 to 10 nM
IC50 (SIK1; [4]): 10 to 100 nM
IC50 (SIK2): 0.01 to 10 nM
SMILES: COc1cc(-n2cnc3cc(-c4cnn(C)c4)ccc32)cc(OC)c1C(=O)NCC(F)(F)F [Cpd 25, 2,6-dimethoxy-4-[5-(1-methylpyrazol-4-yl)benzimidazol-1-yl]-N-(2,2,2-trifluoroethyl)benzamide]
IL-10 FCmax median [1]: ++ (>1.5-4.5)
EC50 [3]: 0.1 to 100 nM

EC50 [2]: 0.1 to 100 nM
IC50 (SIK3): 0.01 to 10 nM
IC50 (SIK1; [4]): 0.01 to 10 nM
IC50 (SIK2): 0.01 to 10 nM
SMILES: COc1cc(-c2cnc3cc(-c4cnn(C)c4)ccn23)cc(OC(F)F)c1C(=O)NC1CC1 [Cpd 124, N-cyclopropyl-2-(difluoromethoxy)-6-methoxy-4-[7-(1-methylpyrazol-4-yl)imidazo[1,2-a]pyridin-3-yl]benzamide]
IL-10 FCmax median [1]: ++ (>1.5-4.5)
EC50 [3]: 0.1 to 100 nM

EC50 [2]: 0.1 to 100 nM
IC50 (SIK3): 0.01 to 10 nM
IC50 (SIK1; [4]): 0.01 to 10 nM
IC50 (SIK2): 0.01 to 10 nM
SMILES: COc1cc(-n2cnc3cc(-c4cnn(CCN5CCOCC5)c4)ccc32)cc(OC(F)F)c1C(=O)NC1CC1 [compound 56, N-cyclopropyl-2-(difluoromethoxy)-6-methoxy-4-[5-[1-(2-morpholinoethyl)pyrazol-4-yl]benzimidazol-1-yl]benzamide]
IL-10 FCmax median [1]: ++ (>1.5-4.5)
EC50 [3]: 0.1 to 100 nM

EC50 [2]: 0.1 to 100 nM
IC50 (SIK3): 0.01 to 10 nM
IC50 (SIK1; [4]): 10 to 100 nM
IC50 (SIK2): 0.01 to 10 nM
SMILES: COCCn1cc(-c2ccc3c(c2)ncn3-c2cc(OC)c(C(=O)NCC(F)(F)F)c(OC)c2)cn1 [compound 84, 2,6-dimethoxy-4-[5-[1-(2-methoxyethyl)pyrazol-4-yl]benzimidazol-1-yl]-N-(2,2,2-trifluoroethyl)benzamide]
IL-10 FCmax median [1]: ++ (>1.5-4.5)
EC50 [3]: 0.1 to 100 nM

EC50 [2]: 0.1 to 100 nM
IC50 (SIK3): 0.01 to 10 nM
IC50 (SIK1; [4]): 10 to 100 nM
IC50 (SIK2): 0.01 to 10 nM
SMILES: COc1cc(-n2cnc3cc(-c4cnn(C5COC5)c4)ccc32)cc(OC)c1C(=O)NCC(F)(F)F [compound 85, 2,6-dimethoxy-4-[5-[1-(oxetan-3-yl)pyrazol-4-yl]benzimidazol-1-yl)-N-(2,2,2-trifluoroethyl)benzamide]
IL-10 FCmax median [1]: ++ (>1.5-4.5)
EC50 [3]: 0.1 to 100 nM

EC50 [2]: 0.1 to 100 nM
IC50 (SIK3): 0.01 to 10 nM
IC50 (SIK1): 10 to 100 nM
IC50 (SIK2): 0.01 to 10 nM
SMILES: COc1cc(-n2cnc3cc(-c4cnn(C(C)C)c4)ccc32)cc(OC)c1C(=O)NCC(F)(F)F [compound 95, 4-[5-(1-isopropylpyrazol-4-yl)benzimidazol-1-yl]-2,6-dimethoxy-N-(2,2,2-trifluoroethyl)benzamide]
EC50 [3]: 0.1 to 100 nM

EC50 [2]: 0.1 to 100 nM
IC50 (SIK3): 0.01 to 10 nM
IC50 (SIK1; [4]): 10 to 100 nM
IC50 (SIK2): 0.01 to 10 nM
SMILES: COc1cc(-n2cnc3cc(-c4cnn(C5CC5)c4)ccc32)cc(OC)c1C(=O)NCC(F)(F)F [compound 96, 4-[5-(l-cyclopropylpyrazol-4-yl)benzimidazol-1-yl]-2,6-dimethoxy-N-(2,2,2-trifluoroethyl)benzamide]
IL-10 FCmax median [1]: ++ (>1.5-4.5)
EC50 [3]: 0.1 to 100 nM

EC50 [2]: 0.1 to 100 nM
IC50 (SIK3): 0.01 to 10 nM
IC50 (SIK1; [4]): 10 to 100 nM
IC50 (SIK2): 0.01 to 10 nM
SMILES: COc1cc(-n2cnc3cc(-c4cnn(C(F)F)c4)ccc32)cc(OC)c1C(=O)NCC(F)(F)F [compound 97, 4-[5-[1-(difluoromethyl)pyrazol-4-yl]benzimidazol-1-yl]-2,6-dimethoxy-N-(2,2,2-trifluoroethyl)benzamide]
EC50 [3]: 0.1 to 100 nM

EC50 [2]: 0.1 to 100 nM
IC50 (SIK3): 0.01 to 10 nM
IC50 (SIK1; [4]): 0.01 to 10 nM
IC50 (SIK2): 0.01 to 10 nM
SMILES: COc1cc(-c2cnn3cc(-c4cnn(C)c4)ccc23)cc(OC)c1C(=O)NCC(F)(F)F [compound 99, 2,6-dimethoxy-4-[6-(1-methylpyrazol-4-yl)pyrazolo[1,5-a]pyridin-3-yl]-N-(2,2,2-trifluorocthyl)benzamide]
EC50 [3]: 0.1 to 100 nM
